Measurements: patent US20240016777A1, “COMPOUNDS AND METHODS FOR TREATING VIRAL INFECTIONS” (priority 2020, published 2024)

How the values were obtained:
SARS-CoV-2 M^pro = SARS-CoV-2 M^pro (Severe acute respiratory syndrome coronavirus 2 (2019-nCoV) (SARS-CoV-2), UniProt P0DTD1); assay: biochemical
Mpro = Mpro (Severe acute respiratory syndrome coronavirus 2 (2019-nCoV) (SARS-CoV-2), UniProt P0DTD1); type: biochemical; settings: jump dilution
SARS-CoV-2 = assay: Vero E6-based SARS-CoV-2 replication assay (immunofluorescence of nucleocapsid protein); type: cell-based; settings: Vero E6 cells

Q: `O=c1cc(-c2ccc(O)cc2)oc2cc(O)cc(O)c12` [apigenin] was tested. Which “Mpro inhibitory activity (comparison in words)” value (SARS-CoV-2 M^pro) did it give?
A: Its value is “somewhat less potent”.

Q: And the IC50 (SARS-CoV-2 M^pro; IC50 for inhibition of Mpro)?
A: The IC50 was 17.4 µM.

Q: And the “Reversibility of Mpro inhibition by dilution” value (Mpro)?
A: The value was “completely reversible”.

Q: And the “Inhibition of SARS-CoV-2 replication (in words)” value (SARS-CoV-2)?
A: Its value is “inhibits viral replication at concentrations at doses that are not toxic”.

Q: And the “Inhibition of SARS-CoV-2 replication at 50 μM” value (SARS-CoV-2; 50 μM)?
A: The value was “somewhat better than baicalein”.

Q: What about the Toxicity in cells (Vero E6 cells) of the same molecule?
A: The Toxicity in cells was “some toxicity”.
